{
  "source": "patent US10343992B2",
  "about": "“1-cyano-pyrrolidine compounds as USP30 inhibitors” (MISSION THERAPEUTICS LIMITED, priority 2015, dated 2019)",
  "biological_target": "USP30 (Homo sapiens (Human), UniProt Q70CQ3)",
  "sequence (Q70CQ3 57-517)": "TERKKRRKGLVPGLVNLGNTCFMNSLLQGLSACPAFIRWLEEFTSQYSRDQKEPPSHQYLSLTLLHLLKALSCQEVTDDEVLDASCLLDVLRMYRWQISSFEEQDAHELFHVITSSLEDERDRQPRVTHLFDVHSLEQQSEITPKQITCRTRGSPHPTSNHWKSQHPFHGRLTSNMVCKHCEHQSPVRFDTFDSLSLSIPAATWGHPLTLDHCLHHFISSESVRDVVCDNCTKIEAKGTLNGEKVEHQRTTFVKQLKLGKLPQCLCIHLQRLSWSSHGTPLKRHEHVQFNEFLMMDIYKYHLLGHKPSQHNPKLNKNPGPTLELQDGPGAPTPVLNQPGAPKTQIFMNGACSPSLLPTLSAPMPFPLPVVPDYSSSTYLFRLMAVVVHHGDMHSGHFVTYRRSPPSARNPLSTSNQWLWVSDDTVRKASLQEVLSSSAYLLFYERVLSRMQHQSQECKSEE",
  "assay": "USP30 biochemical FP or FI IC50 assay",
  "conditions": "read-out: IC50 range",
  "protocol": "USP30 Biochemical IC50 Assay\nDilution plates were prepared at 21 times the final concentration (2100 μM for a final concentration of 100 μM) in 50% DMSO in a 96-well polypropylene V-bottom plate (Greiner #651201). A typical 8-point dilution series would be 100, 30, 10, 3, 1, 0.3, 0.1, 0.03 μM final. Reactions were performed in duplicate in black 384 well plates (small volume, Greiner 784076) in a final reaction volume of 21 μl. Either 1 μl of 50% DMSO or diluted compound was added to the plate. USP30 was diluted in reaction buffer (40 mM Tris, pH 7.5, 0.005% Tween 20, 0.5 mg/ml BSA, 5 mM—beta-mercaptoethanol) to the equivalent of 0.05 μl/well and 10 μl of diluted USP30 was added to the compound. Enzyme and compound were incubated for 30 min at room temp. Reactions were initiated by the addition of 50 nM of TAMRA labelled peptide linked to ubiquitin via an iso-peptide bond as fluorescence polarisation substrate. Reactions were read immediately after addition of substrate and following a 2 hr incubation at room temperature. Readings were performed on a Pherastar Plus (BMG Labtech). λ Excitation 540 nm; λ Emission 590 nm.\nUSP30 Biochemical Fluorescence Intensity IC50 Assay\nDilution plates were prepared at 21 times the final concentration (2100 μM for a final concentration of 100 μM) in 50% DMSO in a 96-well polypropylene V-bottom plate (Greiner #651201). A typical 8-point dilution series would be 100, 30, 10, 3, 1, 0.3, 0.1, 0.03 μM final. Reactions were performed in duplicate in black 384 well plates (small volume, Greiner 784076) in a final reaction volume of 21 μl.\nEither 1 μl of 50% DMSO or diluted compound was added to the plate. USP30 was diluted in reaction buffer (40 mM Tris, pH 7.5, 0.005% Tween 20, 0.5 mg/ml BSA, 5 mM—beta-mercaptoethanol) to the equivalent of 0.001 μl/well and 10 μl of diluted USP30 was added to the compound. Enzyme and compound were incubated for 30 min at room temp. Reactions were initiated by the addition of Ubiquitin-Rhodamine 110 (U-555; Boston Biochem) at a final concentration of 100 nM. Reactions were read immediately after addition of substrate and following a 2 h incubation at room temperature. Readings were performed on a Pherastar Plus (BMG Labtech). λ Excitation 487 nm; λ Emission 535 nm.",
  "data": [
    {"smiles": "COc1cc(C(=O)N[C@@H]2CCN(C#N)C2)ccc1-c1ccncc1Cl", "note": "[Example 39, (R)-4-(3-chloropyridin-4-yl)-N-(1-cyanopyrrolidin-3-yl)-3-methoxybenzamide]", "values": [
      {"measurement": "IC50", "result": "< 100", "unit": "nM"}
    ]},
    {"smiles": "COc1cc(C(=O)N[C@@H]2CCN(C#N)C2)ccc1-c1ccnc(C)c1", "note": "[Example 40, (R)-N-(1-cyanopyrrolidin-3-yl)-3-methoxy-4-(2-methylpyridin-4-yl)benzamide]", "values": [
      {"measurement": "IC50", "result": "< 100", "unit": "nM"}
    ]},
    {"smiles": "COc1cc(C(=O)N[C@@H]2CCN(C#N)C2)ccc1-c1ccnc(N2CCOCC2)c1", "note": "[Example 41, (R)-N-(1-cyanopyrrolidin-3-yl)-3-methoxy-4-(2-morpholinopyridin-4-yl)benzamide]", "values": [
      {"measurement": "IC50", "result": "100 to 1000", "unit": "nM"}
    ]},
    {"smiles": "N#CN1CC[C@@H](NC(=O)c2ccc(F)c(-c3ccncc3)c2)C1", "note": "[Example 42, (R)-N-(1-cyanopyrrolidin-3-yl)-4-fluoro-3-(pyridin-4-yl)benzamide]", "values": [
      {"measurement": "IC50", "result": "100 to 1000", "unit": "nM"}
    ]},
    {"smiles": "Cn1cc(-c2cc(C(=O)N[C@@H]3CCN(C#N)C3)ccc2F)cn1", "note": "[Example 43, (R)-N-(1-cyanopyrrolidin-3-yl)-4-fluoro-3-(1-methyl-1H-pyrazol-4-yl)benzamide]", "values": [
      {"measurement": "IC50", "result": "100 to 1000", "unit": "nM"}
    ]},
    {"smiles": "Cn1cc(-c2ccc(C(=O)N[C@@H]3CCN(C#N)C3)cc2)cn1", "note": "[Example 44, (R)-N-(1-cyanopyrrolidin-3-yl)-4-(1-methyl-1H-pyrazol-4-yl)benzamide]", "values": [
      {"measurement": "IC50", "result": "< 100", "unit": "nM"}
    ]},
    {"smiles": "Cn1cc(-c2cnc(C(=O)N[C@@H]3CCN(C#N)C3)nc2)cn1", "note": "[Example 45, (R)-N-(1-cyanopyrrolidin-3-yl)-5-(1-methyl-1H-pyrazol-4-yl)pyrimidine-2-carboxamide]", "values": [
      {"measurement": "IC50", "result": "100 to 1000", "unit": "nM"}
    ]},
    {"smiles": "N#CN1CC[C@@H](NC(=O)N2CCC(c3ccccc3)C2)C1", "note": "(stereo partly drawn) [Example 46, N-((R)-1-cyanopyrrolidin-3-yl)-3-phenylpyrrolidine-1-carboxamide]", "values": [
      {"measurement": "IC50", "result": "100 to 1000", "unit": "nM"}
    ]},
    {"smiles": "N#CN1CC[C@H](NC(=O)c2ccc(-c3ccncc3)cc2)C1", "note": "[Example 47, (S)-N-(1-cyanopyrrolidin-3-yl)-4-(pyridin-4-yl)benzamide]", "values": [
      {"measurement": "IC50", "result": "1000 to 10000", "unit": "nM"}
    ]},
    {"smiles": "N#CN1CC[C@H](NC(=O)c2cccc(-c3ccccc3)n2)C1", "note": "[Example 48, (S)-N-(1-cyanopyrrolidin-3-yl)-6-phenylpicolinamide]", "values": [
      {"measurement": "IC50", "result": "1000 to 10000", "unit": "nM"}
    ]},
    {"smiles": "CN(C(=O)c1ccc(-c2ccncc2Cl)cc1)[C@@H]1CCN(C#N)C1", "note": "[Example 49, (R)-4-(3-chloropyridin-4-yl)-N-(1-cyanopyrrolidin-3-yl)-N-methylbenzamide]", "values": [
      {"measurement": "IC50", "result": "100 to 1000", "unit": "nM"}
    ]},
    {"smiles": "CN(C(=O)Nc1cn2ccccc2n1)[C@@H]1CCN(C#N)C1", "note": "[Example 50, (R)-1-(1-cyanopyrrolidin-3-yl)-3-(imidazo[1,2-a]pyridin-2-yl)-1-methylurea]", "values": [
      {"measurement": "IC50", "result": "100 to 1000", "unit": "nM"}
    ]},
    {"smiles": "N#CN1C[C@H]2CCN(C(=O)c3ccc(-c4ccccc4)[nH]c3=O)[C@H]2C1", "note": "[Example 61, (3aR,6aR)-1-(2-oxo-6-phenyl-1,2-dihydropyridine-3-carbonyl)hexahydropyrrolo[3,4-b]pyrrole-5(1H)-carbonitrile]", "values": [
      {"measurement": "IC50", "result": "100 to 1000", "unit": "nM"}
    ]},
    {"smiles": "CC(C)C(=O)N(C)c1cccc(C(=O)N[C@@H]2CCN(C#N)C2)c1", "note": "[Example 62, (R)—N-(1-cyanopyrrolidin-3-yl)-3-(N-methylisobutyramido)benzamide]", "values": [
      {"measurement": "IC50", "result": "100 to 1000", "unit": "nM"}
    ]},
    {"smiles": "N#CN1CC[C@@H](NC(=O)c2ncc(-c3ccccc3)cn2)C1", "note": "[Example 63, (R)—N-(1-cyanopyrrolidin-3-yl)-5-phenylpyrimidine-2-carboxamide]", "values": [
      {"measurement": "IC50", "result": "100 to 1000", "unit": "nM"}
    ]},
    {"smiles": "N#CN1CC[C@@H](NC(=O)c2cc(-c3ccncc3)no2)C1", "note": "[Example 64, (R)—N-(1-cyanopyrrolidin-3-yl)-3-(pyridin-4-yl)isoxazole-5-carboxamide]", "values": [
      {"measurement": "IC50", "result": "100 to 1000", "unit": "nM"}
    ]},
    {"smiles": "N#CN1CC[C@@H](NC(=O)c2cc(-c3cccnc3)no2)C1", "note": "[Example 65, (R)-N-(1-cyanopyrrolidin-3-yl)-3-(pyridin-3-yl)isoxazole-5-carboxamide]", "values": [
      {"measurement": "IC50", "result": "100 to 1000", "unit": "nM"}
    ]},
    {"smiles": "N#CN1CC[C@@H](NC(=O)c2cc(-c3ccccn3)no2)C1", "note": "[Example 66, (R)-N-(1-cyanopyrrolidin-3-yl)-3-(pyridin-2-yl)isoxazole-5-carboxamide]", "values": [
      {"measurement": "IC50", "result": "100 to 1000", "unit": "nM"}
    ]},
    {"smiles": "N#CN1CC[C@@H](NC(=O)c2cc(-c3ccccc3)cnn2)C1", "note": "[Example 67, (R)—N-(1-cyanopyrrolidin-3-yl)-5-phenylpyridazine-3-carboxamide]", "values": [
      {"measurement": "IC50", "result": "100 to 1000", "unit": "nM"}
    ]},
    {"smiles": "CN(C(=O)c1ccc(-c2ccccc2)cc1)C1CCN(C#N)C1", "note": "(stereo not drawn) [Example 68, N-(1-cyanopyrrolidin-3-yl)-N-methyl-[1,1′-biphenyl]-4-carboxamide]", "values": [
      {"measurement": "IC50", "result": "100 to 1000", "unit": "nM"}
    ]},
    {"smiles": "C[C@H]1CN(C#N)C[C@@H]1NC(=O)c1ncc(-c2ccccc2)s1", "note": "[Example 69, N-((3R,4S)-1-cyano-4-methylpyrrolidin-3-yl)-5-phenylthiazole-2-carboxamide]", "values": [
      {"measurement": "IC50", "result": "1000 to 10000", "unit": "nM"}
    ]},
    {"smiles": "C[C@@H]1CN(C#N)C[C@H]1NC(=O)c1ncc(-c2ccccc2)s1", "note": "[Example 70, N-((3S,4R)-1-cyano-4-methylpyrrolidin-3-yl)-5-phenylthiazole-2-carboxamide]", "values": [
      {"measurement": "IC50", "result": "< 100", "unit": "nM"}
    ]},
    {"smiles": "C[C@H]1CN(C#N)C[C@@H]1NC(=O)c1cnc(-c2ccccc2)s1", "note": "[Example 71, N-((3R,4S)-1-cyano-4-methylpyrrolidin-3-yl)-2-phenylthiazole-5-carboxamide]", "values": [
      {"measurement": "IC50", "result": "100 to 1000", "unit": "nM"}
    ]},
    {"smiles": "C[C@@H]1CN(C#N)C[C@H]1NC(=O)c1cnc(-c2ccccc2)s1", "note": "[Example 72, N-((3S,4R)-1-cyano-4-methylpyrrolidin-3-yl)-2-phenylthiazole-5-carboxamide]", "values": [
      {"measurement": "IC50", "result": "< 100", "unit": "nM"}
    ]},
    {"smiles": "N#CN1CC[C@@H](NC(=O)c2ccnc(N3Cc4ccccc4C3)c2)C1", "note": "[Example 73, (R)—N-(1-cyanopyrrolidin-3-yl)-2-(isoindolin-2-yl)isonicotinamide]", "values": [
      {"measurement": "IC50", "result": "100 to 1000", "unit": "nM"}
    ]},
    {"smiles": "N#CN1CC[C@@H](NC(=O)c2ccnc(N3CCc4ccccc4C3)c2)C1", "note": "[Example 74, (R)—N-(1-cyanopyrrolidin-3-yl)-2-(3,4-dihydroisoquinolin-2(1H)-yl)isonicotinamide]", "values": [
      {"measurement": "IC50", "result": "100 to 1000", "unit": "nM"}
    ]},
    {"smiles": "Cc1cn(-c2ccc(C(=O)N[C@@H]3CCN(C#N)C3)c(F)c2)cn1", "note": "[Example 75, (R)—N-(1-cyanopyrrolidin-3-yl)-2-fluoro-4-(4-methyl-1H-imidazol-1-yl)benzamide]", "values": [
      {"measurement": "IC50", "result": "100 to 1000", "unit": "nM"}
    ]},
    {"smiles": "Cn1cc(-c2ccc(C(=O)N[C@@H]3CCN(C#N)C3)cc2F)cn1", "note": "[Example 76, (R)-N-(1-cyanopyrrolidin-3-yl)-3-fluoro-4-(1-methyl-1H-pyrazol-4-yl)benzamide]", "values": [
      {"measurement": "IC50", "result": "< 100", "unit": "nM"}
    ]},
    {"smiles": "Cn1cc(-c2ccc(C(=O)N[C@@H]3CCN(C#N)C3)c(F)c2)cn1", "note": "[Example 77, (R)-N-(1-cyanopyrrolidin-3-yl)-2-fluoro-4-(1-methyl-1H-pyrazol-4-yl)benzamide]", "values": [
      {"measurement": "IC50", "result": "< 100", "unit": "nM"}
    ]},
    {"smiles": "Cn1cc(-c2cc(F)c(C(=O)N[C@@H]3CCN(C#N)C3)cc2F)cn1", "note": "[Example 78, (R)-N-(1-cyanopyrrolidin-3-yl)-2,5-difluoro-4-(1-methyl-1H-pyrazol-4-yl)benzamide]", "values": [
      {"measurement": "IC50", "result": "< 100", "unit": "nM"}
    ]},
    {"smiles": "Cc1nn(C)cc1-c1ccc(C(=O)N[C@@H]2CCN(C#N)C2)cc1F", "note": "[Example 79, (R)-N-(1-cyanopyrrolidin-3-yl)-4-(1,3-dimethyl-1H-pyrazol-4-yl)-3-fluorobenzamide]", "values": [
      {"measurement": "IC50", "result": "< 100", "unit": "nM"}
    ]},
    {"smiles": "Cc1nn(C)cc1-c1ccc(C(=O)N[C@@H]2CCN(C#N)C2)c(F)c1", "note": "[Example 80, (R)-N-(1-cyanopyrrolidin-3-yl)-4-(1,3-dimethyl-1H-pyrazol-4-yl)-2-fluorobenzamide]", "values": [
      {"measurement": "IC50", "result": "< 100", "unit": "nM"}
    ]},
    {"smiles": "CCn1cc(-c2ccc(C(=O)N[C@@H]3CCN(C#N)C3)c(F)c2)cn1", "note": "[Example 81, (R)-N-(1-cyanopyrrolidin-3-yl)-4-(1-ethyl-1H-pyrazol-4-yl)-2-fluorobenzamide]", "values": [
      {"measurement": "IC50", "result": "< 100", "unit": "nM"}
    ]}
  ]
}
